Key:
Test in all cases: cells
Type in all cases: functional, cell-based, Homo sapiens
[1] = test system: CAL-39; conditions: Homo sapiens, CAL-39;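 further: cell viability assay measuring growth inhibition of CAL-39 cells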
Description: SANGER: Inhibition of human CAL-39 cell growth in a cell viability assay.

[2] = test system: NCI-H1563; conditions: Homo sapiens, NCI-H1563;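 further: growth inhibition of human NCI-H1563 cells, read out with a cell viability assay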
Description: SANGER: Inhibition of human NCI-H1563 cell growth in a cell viability assay.

[3] = test system: D-336MG; conditions: Homo sapiens, D-336MG
Description: SANGER: Inhibition of human D-336MG cell growth in a cell viability assay.

[4] = test system: CP50-MEL-B; conditions: Homo sapiens, CP50-MEL-B;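 further: growth inhibition of the human cell line, measured with a cell viability read-out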
Description: SANGER: Inhibition of human CP50-MEL-B cell growth in a cell viability assay.

[5] = test system: HLE; conditions: Homo sapiens, HLE;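 further: growth inhibition of human HLE cells, read out by a cell viability assay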
Description: SANGER: Inhibition of human HLE cell growth in a cell viability assay.

[6] = test system: BFTC-909; conditions: Homo sapiens, BFTC-909
Description: SANGER: Inhibition of human BFTC-909 cell growth in a cell viability assay.

[7] = test system: OVCAR-5; conditions: Homo sapiens, OVCAR-5;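 further: growth inhibition of human OVCAR-5 cells, read out with a cell viability assay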
Description: SANGER: Inhibition of human OVCAR-5 cell growth in a cell viability assay.

[8] = test system: CWR22R; conditions: Homo sapiens, 22Rv1;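 further: growth inhibition of 22Rv1 cells, read out with a cell viability assay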
Description: SANGER: Inhibition of human 22RV1 cell growth in a cell viability assay.

[9] = test system: SKG-IIIa; conditions: Homo sapiens, SKG-IIIa;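 further: cell growth inhibition, read out with a cell viability assay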
Description: SANGER: Inhibition of human SKG-IIIa cell growth in a cell viability assay.

[10] = test system: MKN-45; conditions: Homo sapiens, MKN-45;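 further: growth inhibition of human MKN-45 cells, measured with a cell viability assay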
Description: SANGER: Inhibition of human MKN45 cell growth in a cell viability assay.

[11] = test system: GAMG; conditions: Homo sapiens, GAMG;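 further: cell growth inhibition measured by a viability assay in the GAMG human cell line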
Description: SANGER: Inhibition of human GAMG cell growth in a cell viability assay.

[12] = test system: SW1573; conditions: Homo sapiens, SW1573;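 further: growth inhibition of SW1573 cells, read out with a cell viability assay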
Description: SANGER: Inhibition of human SW1573 cell growth in a cell viability assay.

[13] = test system: RCM-1; conditions: Homo sapiens, RCM-1;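 further: growth inhibition of the RCM-1 line, determined with a cell viability readout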
Description: SANGER: Inhibition of human RCM-1 cell growth in a cell viability assay.

[14] = test system: ABC-1; conditions: Homo sapiens, ABC-1;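 further: growth inhibition of human ABC-1 cells, read out by a cell viability assay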
Description: SANGER: Inhibition of human ABC-1 cell growth in a cell viability assay.

[15] = test system: SW 1116; conditions: Homo sapiens, SW 1116;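 further: growth inhibition of SW1116 cells, read out with a cell viability assay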
Description: SANGER: Inhibition of human SW1116 cell growth in a cell viability assay.

[16] = test system: SNU-449; conditions: Homo sapiens, SNU-449
Description: SANGER: Inhibition of human SNU-449 cell growth in a cell viability assay.

[17] = test system: MDA-MB-175-VII; conditions: Homo sapiens, MDA-MB-175-VII
[18] = test system: MC-IXC; conditions: Homo sapiens, MC-IXC;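 further: growth inhibition of MC-IXC cells, read out with a cell viability assay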
Description: SANGER: Inhibition of human MC-IXC cell growth in a cell viability assay.

[19] = test system: NCI-H2452; conditions: Homo sapiens, NCI-H2452;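 further: growth inhibition of NCI-H2452 cells, read out with a cell viability assay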
Description: SANGER: Inhibition of human NCI-H2452 cell growth in a cell viability assay.

[20] = test system: HCT-116; conditions: Homo sapiens, HCT-116
Description: SANGER: Inhibition of human HCT-116 cell growth in a cell viability assay.

[21] = test system: ESS-1; conditions: Homo sapiens, ESS-1;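 further: growth inhibition of human ESS-1 cells, read out by a cell viability assay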
Description: SANGER: Inhibition of human ESS-1 cell growth in a cell viability assay.

[22] = test system: SK-LU-1; conditions: Homo sapiens, SK-LU-1;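 further: cell viability assay measuring growth inhibition of human SK-LU-1 cells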
Description: SANGER: Inhibition of human SK-LU-1 cell growth in a cell viability assay.

[23] = test system: NCI-H1048; conditions: Homo sapiens, NCI-H1048;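 further: growth inhibition of human NCI-H1048 cells, read out with a cell viability assay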
Description: SANGER: Inhibition of human NCI-H1048 cell growth in a cell viability assay.

[24] = test system: HPAF-II; conditions: Homo sapiens, HPAF-II;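 further: growth inhibition of HPAF-II cells, read out with a cell viability assay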
Description: SANGER: Inhibition of human HPAF-II cell growth in a cell viability assay.

[25] = test system: AN3-CA; conditions: Homo sapiens, AN3-CA;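 further: growth inhibition of human AN3-CA cells measured by a cell viability assay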
Description: SANGER: Inhibition of human AN3-CA cell growth in a cell viability assay.

[26] = test system: NY; conditions: Homo sapiens, NY
Description: SANGER: Inhibition of human NY cell growth in a cell viability assay.

[27] = test system: NCI-H630; conditions: Homo sapiens, NCI-H630;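 further: growth inhibition of NCI-H630 cells, read out with a cell viability assay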
Description: SANGER: Inhibition of human NCI-H630 cell growth in a cell viability assay.

[28] = test system: M14; conditions: Homo sapiens, M14;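 further: growth inhibition of M14 cells, read out with a cell viability assay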
Description: SANGER: Inhibition of human M14 cell growth in a cell viability assay.

[29] = test system: KOSC-2; conditions: Homo sapiens, KOSC-2;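 further: growth inhibition of KOSC-2 cells, read out by a cell viability assay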
Description: SANGER: Inhibition of human KOSC-2 cell growth in a cell viability assay.

[30] = test system: Daoy; conditions: Homo sapiens, Daoy;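 further: daoy cell growth inhibition, read out as cell viability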
Description: SANGER: Inhibition of human Daoy cell growth in a cell viability assay.

[31] = test system: MFE-280; conditions: Homo sapiens, MFE-280;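 further: growth inhibition of MFE-280 cells, determined with a cell viability readout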
Description: SANGER: Inhibition of human MFE-280 cell growth in a cell viability assay.

**Q.** `CC(C)CCN1c2nc(Nc3cc(F)c(O)c(F)c3)ncc2N(C)C(=O)C1C` (configuration not stated) was tested. Which IC50 [1] did it give?
**A.** 4940 nM

**Q.** And the IC50 [2]?
**A.** > 5000 nM

**Q.** And the IC50 [3]?
**A.** > 5000 nM

**Q.** What about the IC50 [4] of the same compound?
**A.** > 5000 nM

**Q.** And the IC50 [5]?
**A.** > 5000 nM

**Q.** And the IC50 [6]?
**A.** > 5000 nM

**Q.** And the IC50 [7]?
**A.** > 5000 nM

**Q.** What about the IC50 [8] of the same compound?
**A.** > 5000 nM

**Q.** What about the IC50 [9] of the same compound?
**A.** > 5000 nM

**Q.** What about the IC50 [10] of the same compound?
**A.** > 5000 nM

**Q.** What about the IC50 [11] of the same compound?
**A.** 747 nM

**Q.** What about the IC50 [12] of the same compound?
**A.** > 5000 nM

**Q.** What about the IC50 [13] of the same compound?
**A.** > 5000 nM

**Q.** What about the IC50 [14] of the same compound?
**A.** > 5000 nM

**Q.** What about the IC50 [15] of the same compound?
**A.** > 5000 nM

**Q.** What about the IC50 [16] of the same compound?
**A.** > 5000 nM

**Q.** What about the IC50 [17] of the same compound?
**A.** > 5000 nM

**Q.** What about the IC50 [18] of the same compound?
**A.** 796 nM

**Q.** What about the IC50 [19] of the same compound?
**A.** > 5000 nM

**Q.** What about the IC50 [20] of the same compound?
**A.** > 5000 nM

**Q.** What about the IC50 [21] of the same compound?
**A.** > 5000 nM

**Q.** What about the IC50 [22] of the same compound?
**A.** > 5000 nM

**Q.** What about the IC50 [23] of the same compound?
**A.** 2680 nM

**Q.** What about the IC50 [24] of the same compound?
**A.** > 5000 nM

**Q.** And the IC50 [25]?
**A.** > 5000 nM

**Q.** What about the IC50 [26] of the same compound?
**A.** > 5000 nM

**Q.** What about the IC50 [27] of the same compound?
**A.** > 5000 nM

**Q.** What about the IC50 [28] of the same compound?
**A.** > 5000 nM

**Q.** And the IC50 [29]?
**A.** 1130 nM

**Q.** And the IC50 [30]?
**A.** 988 nM

**Q.** And the IC50 [31]?
**A.** > 5000 nM

**Q.** How did the IC50 [1] turn out when `CC1(C)CNc2cc(NC(=O)c3cccnc3NCc3ccncc3)ccc21` [MOTESANIB] was run?
**A.** > 2000 nM

**Q.** And the IC50 [2]?
**A.** > 2000 nM

**Q.** And the IC50 [3]?
**A.** > 2000 nM

**Q.** And the IC50 [4]?
**A.** > 2000 nM

**Q.** And the IC50 [5]?
**A.** > 2000 nM

**Q.** And the IC50 [6]?
**A.** > 2000 nM

**Q.** What about the IC50 [7] of the same compound?
**A.** > 2000 nM

**Q.** And the IC50 [8]?
**A.** > 2000 nM

**Q.** And the IC50 [9]?
**A.** > 2000 nM

**Q.** And the IC50 [10]?
**A.** > 2000 nM

**Q.** What about the IC50 [11] of the same compound?
**A.** > 2000 nM

**Q.** What about the IC50 [12] of the same compound?
**A.** > 2000 nM

**Q.** And the IC50 [13]?
**A.** > 2000 nM

**Q.** And the IC50 [14]?
**A.** > 2000 nM

**Q.** What about the IC50 [15] of the same compound?
**A.** > 2000 nM

**Q.** What about the IC50 [16] of the same compound?
**A.** > 2000 nM

**Q.** And the IC50 [17]?
**A.** > 2000 nM

**Q.** What about the IC50 [18] of the same compound?
**A.** > 2000 nM

**Q.** What about the IC50 [19] of the same compound?
**A.** > 2000 nM

**Q.** And the IC50 [20]?
**A.** > 2000 nM

**Q.** And the IC50 [21]?
**A.** > 2000 nM

**Q.** And the IC50 [22]?
**A.** > 2000 nM

**Q.** What about the IC50 [23] of the same compound?
**A.** > 2000 nM

**Q.** And the IC50 [24]?
**A.** > 2000 nM

**Q.** What about the IC50 [25] of the same compound?
**A.** > 2000 nM

**Q.** And the IC50 [26]?
**A.** > 2000 nM

**Q.** What about the IC50 [27] of the same compound?
**A.** > 2000 nM

**Q.** And the IC50 [28]?
**A.** > 2000 nM

**Q.** What about the IC50 [29] of the same compound?
**A.** > 2000 nM

**Q.** What about the IC50 [30] of the same compound?
**A.** > 2000 nM

**Q.** What about the IC50 [31] of the same compound?
**A.** > 2000 nM

— ChEMBL document CHEMBL1201861, “Genomics of Drug Sensitity in Cancer screening data, Wellcome Trust Sanger Institute”
